The values that follow are results of earlier work, collected in patent publication US7972386B2, “Bleaching of substrates” (Conopco, Inc., priority 2005, dated 2011).

The conditions of this data set: at 20° C.

For the molecule `CN1CCN(C)CCN(C)CC1.CN1CCN(C)CCN(C)CC1.F[P-](F)(F)(F)(F)F.F[P-](F)(F)(F)(F)F.O.[Mn+4].[Mn+4].[O-2].[O-2].[O-2]` [[Mn2O3(Me3-TACN)2](PF6)2•H2O, [Mn2O3(Me3-TACN)2] (PF6)2.H2O], the water solubility is 10.8 g per litre.
